Earlier results as cited in US20130267562A1, “ACTIVE ENANTIOMER OF DODECYL 2-(N,N-DIMETHYLAMINO)-PROPIONATE” (NEXMED HOLDINGS, INC, priority 2010, published 2013).

Compound: CCCCCCCCCCCCOC(=O)C(C)N(C)C (racemic) [Racemic DDAIP, dodecyl 2-methyl-2-(N,N-dimethylamino)acetate]
- miscibility with organic solvents (most organic solvents): miscible with most organic solvents
- solubility in water (water): not soluble
